# Measurements published in patent publication US20070191357A1, “METHODS OF USING POTASSIUM CHANNEL INHIBITING COMPOUNDS” (priority 2005, published 2007).
# Biological target: T1, human potassium Kv1.3 (Homo sapiens, UniProt P22001)
# T1 construct: expressed in transfected cells; host or cells: stably transfected cells grown in serum-free medium for CHO cells (CHO inferred from the medium)
# Test: Potassium Kv1.3 autopatch electrophysiology method, percentage charge inhibition
# Type: cell-based
# Settings: concentration not given (compounds made up at 1 μM and 10 μM)
# Procedure: 2. Electrophysiological Examination of Test Compounds on the Kv1.3-Mediated Potassium Current (Potassium Kv1.3 Autopatch Electrophysiology Method)
# In another set of experiments, the inhibition of the potassium Kv1.3 channel has been measured.
# Cells stably transfected with cDNA for human potassium Kv1.3 (in pcDNA3.1) were grown in Ex-cell 302 serum-free medium for CHO cells, supplemented with 10 μl/ml [100×] glutamine, 500 μg/ml G418, and 1% HT supplement (50×, hypoxanthine and thymidine). The cells were cultured in 350 ml spinner (Techne) spun at 80 rpm, at 37° C. in a water-saturated 5% CO2 incubator. The day of the preparation an aliquot of cells was 5 times diluted in fresh media and counted with a glass counting chamber type Malassez. Then six tubes of 10 ml were prepared at 6×10^6 c/ml. The tubes were then placed at 4° C. until their use.
# The external bathing solution contained (in mM): 150 NaCl, 10 KCl, 1 MgCl2, 3 CaCl2 and 10 HEPES. The pH was adjusted to 7.4 with NaOH. Patch pipettes were filled with a pipette solution of composition (in mM): 100 K-Gluconate, 20 KCl, 1 MgCl2, 1 CaCl2, 10 HEPES, 11 EGTA, 5 ATP-Na2 and 2 Glutathione. The pH was adjusted to 7.2 with KOH. Using fresh 100 ml bathing solution, 0.05% BSA re-suspension solution (0.05 g BSA/100 ml bather) was prepared.
# Compounds were dissolved in DMSO (100%) and made up in the external bather at concentrations of 1 μM and 10 μM. All experiments were conducted at room temperature.
# Two tubes of cell suspension were centrifuged at 1000 rpm for 4 minutes at room temperature. 10 ml of supernatant was carefully aspirated and discarded from each tube, with care being taken not to aspirate the cell pellet sitting at the bottom of the tube. The cell pellet of each tube was broken-up by gentle manual agitation of the tube. 600 μl of re-suspension solution was added to the cell pellet, followed by a gentle trituration step to re-suspend the cells. Once re-suspended, 600 μl of solution per tube was removed from each tube, such that 1.2 ml of cell suspension was obtained in total and placed in a temperature-controlled cell hotel, set at either 4° C. or dew point. Cells were maintained in suspension in the hotel through gentle trituration every 30 s via an automatic cell suspension system.
# Harvard borosilicate capillary glass (GC1507F-10, […], supplied in 100 mm lengths) was cut down to 24 mm lengths using a Dagen capillary cutter. Short (13 mm) patch pipettes were pulled using a 2-stage pull on a specially adapted DMZ pipette puller (Zeitz Instruments). Patch pipettes typically have resistances of 2.3-3.5 MΩ. As the patch pipettes were pulled in batches, pipette tip resistance was measured every tenth pipette using a Tenma meter in order to maintain consistency of tip resistance. Pulled pipettes were stored in Petri dish before filling.
# Each pipette was fully back-filled (from the tip to the end) using the internal pipette solution and the pipette tip was dipped in Sigmacote (Sigma). The pipette was then precisely inserted, tip first, into a pipette holder using a custom-made, pneumatic insertion rig, with the blunt end of the patch pipette sitting proud of the bottom of the pipette holder.
# Whole cell patch-clamp recordings (WCRs) were made using the AP2, which incorporates an EPC9 or EPC10 amplifier (HEKA, Germany) under control of Pulse software (v8.54 or v8.76, HEKA, Germany), the patch plate contact fixture, a Gilson autosampler for cell delivery (the cell sampler), a Gilson autosampler for drug preparation (the auto-sampler), the drug application system (DAS), a feedback-controlled suction device for enabling high resistance GΩ seals to be formed for the whole cell recording mode to be attained, a cell re-suspension system, a temperature-controlled cell hotel, a vacuum line and associated pumps for applying suction and for draining the patch plate wells of bather.
# Under control of the AP2 software, automated patch-clamping was initiated. […]
# T1 sequence (P22001 whole entry): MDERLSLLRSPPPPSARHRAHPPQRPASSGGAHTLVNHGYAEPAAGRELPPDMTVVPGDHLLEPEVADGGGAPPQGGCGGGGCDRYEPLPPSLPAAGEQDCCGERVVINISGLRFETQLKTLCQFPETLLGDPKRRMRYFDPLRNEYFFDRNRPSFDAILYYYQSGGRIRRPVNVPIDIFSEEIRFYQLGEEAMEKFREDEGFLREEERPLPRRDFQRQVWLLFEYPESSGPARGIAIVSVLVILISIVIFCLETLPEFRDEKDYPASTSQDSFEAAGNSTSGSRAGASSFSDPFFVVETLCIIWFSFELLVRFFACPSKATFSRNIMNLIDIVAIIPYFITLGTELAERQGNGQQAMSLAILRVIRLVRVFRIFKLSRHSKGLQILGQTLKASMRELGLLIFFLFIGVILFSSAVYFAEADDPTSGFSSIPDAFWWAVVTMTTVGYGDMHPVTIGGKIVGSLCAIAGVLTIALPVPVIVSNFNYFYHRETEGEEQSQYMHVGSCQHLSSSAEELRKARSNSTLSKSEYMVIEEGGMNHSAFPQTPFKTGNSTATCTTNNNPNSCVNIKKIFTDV
row,Compound,Inhibition of the Potassium Kv1.3 channel (%)
1,CNC(=NS(=O)(=O)c1ccc(Cl)cc1)N1CC(c2cccnc2)C(c2ccc(Cl)cc2)=N1 (stereo not shown),88.7
2,CON/C(=N\S(=O)(=O)c1ccc(Cl)cc1)N1C[C@H](c2cccc(F)c2)C(c2ccc(Cl)cc2)=N1,76.0
3,CNC(=NS(=O)(=O)N(C)C)N1CC(c2cccc(F)c2)C(c2ccc(Cl)cc2)=N1 (stereo not shown),88.1
4,CN(C)CCNC(=NS(=O)(=O)N1CCCCC1)N1CC(c2ccccc2)C(c2ccc(Cl)cc2)=N1 (stereo not shown),58.4
5,CN1CCC(CNC(=NS(=O)(=O)c2ccc(Cl)cc2)N2CC(c3ccccc3)C(c3ccc(Cl)cc3)=N2)C1 (stereo not shown),96.2
6,O=S(=O)(N=C(NCCF)N1CC(c2ccccc2)C(c2ccc(Cl)cc2)=N1)c1ccc(Cl)cc1 (stereo not shown),77.1
7,CNC(=NS(=O)(=O)N1CCC(O)CC1)N1CC(c2ccccc2)C(c2ccc(Cl)cc2)=N1 (stereo not shown),92.8
8,CN[C@@H](Cc1c[nH]c2ccccc12)C(=O)N1CC(c2ccccc2)C(c2ccc(Cl)cc2)=N1 (stereo partly shown),87.8
9,CCN(CC)C(=O)c1cn(-c2ccc(Cl)cc2)c(-c2ccc(Cl)cc2Cl)n1,76.2
10,"CC1=Nc2ccc(Cl)cc2S(=O)(=O)N1 [Diazoxide, reference compound]",46.5
11,"CCCCCCC(C)(C)c1cc(OC)c([C@H]2C=C(CO)[C@H]3C[C@@H]2C3(C)C)c(OC)c1 [HU-308, reference compound]",81.2
12,"CC1(NC2=NS(=O)(=O)c3sc(Cl)cc3N2)CC1 [NN414, reference compound]",45.1
13,"Cc1c(C(=O)c2cccc3ccccc23)c2cccc3c2n1[C@H](CN1CCOCC1)CO3 [R(+)-WIN55212-2, reference compound]",81.5
14,"Cc1c(C(=O)NN2CCCCC2)nn(-c2ccc(Cl)cc2Cl)c1-c1ccc(Cl)cc1 [Rimonabant, reference compound]",89.2
15,"CCc1c(C(=O)NN2CCCCC2)nn(-c2ccc(Cl)cc2Cl)c1-c1ccc(Br)cc1 [SR-147778, reference compound]",63.7

# Biological target: T1, human potassium Kv1.3
# Test: Electrophysiological examination (whole-cell patch-clamp) of the Kv1.3-mediated potassium current in CHO cells
# Type: cell-based
# Settings: 10 μM example compound 1, time course
# Procedure: 1. Electrophysiological Examination of Test Compounds on the KV1.3-Mediated Potassium Current
# cDNA coding for the human potassium Kv1.3 was cloned into a standard vector. A C-terminal epitope-tag was introduced via PCR. The plasmid was sequenced and subsequently introduced into cells and a clonal cell line was established. Expression of protein was analyzed by means of immunofluorescence using antibodies directed against the epitope-tag.
# Experiments were performed in CHO cells stably expressing the potassium Kv1.3 potassium channel. […]
# Patch-clamp experiments were performed in the voltage-clamp mode (Hamill et al., 1981) and whole-cell currents were recorded. Patch pipettes were pulled from borosilicate glass tubes. Current signals were amplified and digitized by an EPC patch-clamp amplifier (HEKA-Electronics, Lambrecht, Germany), stored and analyzed on a personal computer using the Pulse/Pulsefit software (HEKA, Lambrecht, Germany). Experiments were conducted at room temperature.
# For investigating effects and reversibility of a test compound on the Kv1.3 potassium channel, CHO cells were clamped at a holding potential (HP) of −80 mV. The following stimulation protocol (scheme 1) was applied successively and the induced currents have been recorded: […]
# The application protocol of the test compound is depicted in scheme 2. […] Nonspecific current reduction was calculated and serves for correction procedures during data analysis. […] Effect of the test compound was analyzed between stimulus nos. […]
# The appropriate experiment was selected from the data tree in the Pulse software. […] The leak current amplitude during the prepulse to −90 mV and the peak current amplitude of the test-pulse to +40 mV were measured by placing the cursors on the oscilloscope screen (FIG. 3). […]
# FIG. 1: Kv1.3-mediated potassium current. […] The two cursors on the right indicate the range of the test pulse, where the peak current amplitude was evaluated (205-230 ms of the test pulse to +40 mV). The two cursors on the left indicate the area where the mean leak current was evaluated (100-140 ms of the test pulse to −90 mV). […]
row,Compound,Effect on current amplitude (in words)
1,CN=C(NS(=O)(=O)c1ccc(Cl)cc1)N1C[C@H](c2ccccc2)C(c2ccc(Cl)cc2)=N1 [example compound 1],significant current reduction

# Same assay, conditions: in the presence of 0.1% BSA; fit of equation (4)
row,Compound,Hill coefficient nH
1,CN=C(NS(=O)(=O)c1ccc(Cl)cc1)N1C[C@H](c2ccccc2)C(c2ccc(Cl)cc2)=N1 [example compound 1],0.72±0.22

# Same assay, conditions: over the tested concentrations
row,Compound,Effect on outward Kv1.3-mediated current amplitudes (in words)
1,CN=C(NS(=O)(=O)c1ccc(Cl)cc1)N1C[C@H](c2ccccc2)C(c2ccc(Cl)cc2)=N1 [example compound 1],reduced in a concentration-dependent manner

# Tested on: not listed separately
# Test: Solubility as noted during the Kv1.3 patch-clamp experiments
# Settings: bath solution; 0.1% BSA used to overcome it
row,Compound,Solubility (in words)
1,CN=C(NS(=O)(=O)c1ccc(Cl)cc1)N1C[C@H](c2ccccc2)C(c2ccc(Cl)cc2)=N1 [example compound 1],low solubility
